The values below come from US10435399B2, “HDAC6 inhibitory heterocyclic compound” (TAKEDA PHARMACEUTICAL COMPANY LIMITED, priority 2017, dated 2019).

One test has as its target T1, HDAC6 enzyme (Homo sapiens, UniProt Q9UBN7).
T1 construct: transducing full length HDAC6 gene into Sf-9 insect cells; GST; purchased SignalChem; host or cells: Sf-9 insect cells
T1 sequence (Q9UBN7 1-1215): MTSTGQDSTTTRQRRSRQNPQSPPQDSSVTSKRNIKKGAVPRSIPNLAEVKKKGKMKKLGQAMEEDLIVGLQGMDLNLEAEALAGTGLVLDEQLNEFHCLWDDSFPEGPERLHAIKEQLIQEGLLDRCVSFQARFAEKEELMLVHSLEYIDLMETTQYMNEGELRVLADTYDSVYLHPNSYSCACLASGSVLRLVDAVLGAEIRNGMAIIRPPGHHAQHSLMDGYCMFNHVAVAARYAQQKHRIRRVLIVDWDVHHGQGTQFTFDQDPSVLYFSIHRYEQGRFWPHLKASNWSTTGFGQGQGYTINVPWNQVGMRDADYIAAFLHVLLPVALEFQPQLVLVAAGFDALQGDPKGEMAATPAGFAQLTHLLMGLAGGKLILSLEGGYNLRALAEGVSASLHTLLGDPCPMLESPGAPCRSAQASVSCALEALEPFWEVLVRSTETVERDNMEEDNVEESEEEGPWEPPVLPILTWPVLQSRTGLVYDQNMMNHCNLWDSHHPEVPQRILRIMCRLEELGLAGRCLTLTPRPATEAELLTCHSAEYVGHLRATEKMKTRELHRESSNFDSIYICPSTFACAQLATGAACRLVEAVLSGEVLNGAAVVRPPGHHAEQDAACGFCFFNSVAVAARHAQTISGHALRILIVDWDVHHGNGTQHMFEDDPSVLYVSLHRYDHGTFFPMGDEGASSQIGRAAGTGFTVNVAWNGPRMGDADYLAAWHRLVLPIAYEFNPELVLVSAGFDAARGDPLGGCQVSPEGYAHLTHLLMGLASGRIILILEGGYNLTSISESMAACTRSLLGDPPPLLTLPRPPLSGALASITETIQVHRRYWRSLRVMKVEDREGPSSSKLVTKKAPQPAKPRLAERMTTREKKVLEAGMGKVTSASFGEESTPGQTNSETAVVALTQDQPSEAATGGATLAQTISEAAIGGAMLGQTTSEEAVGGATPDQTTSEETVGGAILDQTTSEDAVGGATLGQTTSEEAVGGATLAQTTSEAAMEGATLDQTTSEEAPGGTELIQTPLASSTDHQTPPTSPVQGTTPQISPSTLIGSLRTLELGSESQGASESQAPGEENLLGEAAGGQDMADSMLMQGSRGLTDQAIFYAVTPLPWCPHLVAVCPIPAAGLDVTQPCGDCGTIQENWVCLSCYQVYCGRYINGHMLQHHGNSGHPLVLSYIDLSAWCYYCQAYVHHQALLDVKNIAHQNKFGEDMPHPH
Briefly: HDAC6 enzyme inhibitory activity (HDAC-Glo I/II Assay kit). Format: biochemical. The note with it: 10 μM; wells without enzyme = 100% inhibition. A digest of the protocol:
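Inhibition is calculated as relative activity, taking luminescence in enzyme-free wells as complete inhibition. The enzyme, full-length and GST-purified after Sf-9 expression, was exposed to compound for 60 min at room temperature before a 20 min HDAC-Glo reaction.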
Take `O=C1c2cc(-c3nnc(C(F)F)o3)ccc2CN1[C@@H]1CCN(C(=O)C2(C(F)(F)F)CC2)C[C@H]1c1ccc(F)cc1` [Example 508, 6-(5-(difluoro-methyl)-1,3,4-oxadiazol-2-yl)-2-((3R,4R)-3-(4-fluorophenyl)-1-((1-(trifluoro-methyl)cyclo-propyl)carbonyl)pipeiridin-4-yl) isoindolin-1-one]: the “HDAC6 inhibitory rate (%) (10 μM)” value is given as 100%.

The test is the same for the next values; noted with them: 10 μM; wells without enzyme = 100% inhibition; read-out: HDAC6 inhibitory rate (%) (10 μM).
Turning to `Cc1nc2ccccc2n1[C@@H]1CCCC[C@H]1N1Cc2ncc(-c3nnc(C(F)F)o3)cc2C1=O` [Example 503, 3-(5-(difluoromethyl)-1,3,4-oxadiazol-2-yl)-6-((1R,2R)-2-(2-methyl-1H-benzimidazol-1-yl)cyclohexyl)-6,7-dihydro-5H-pyrrolo[3,4-b]pyridin-5-one], the inhibition at 10 µM amounted to 99%.
Turning to `COC(=O)N1CC[C@@H](N2Cc3ccc(-c4nnc(C(F)F)o4)cc3C2=O)[C@H](c2ccc(F)cc2)C1` [Example 505, methyl (3R,4R)-4-(6-(5-(difluoro-methyl)-1,3,4-oxadiazol-2-yl)-1-oxo-1,3-dihydro-2H-isoindol-2-yl)-3-(4-fluoro-phenyl) piperidine-1-carboxylate], the inhibition at 10 µM was 100%.
As to `CC(F)(F)C(=O)N1CC[C@@H](N2Cc3ccc(-c4nnc(C(F)F)o4)cc3C2=O)[C@H](c2ccc(F)cc2)C1` [Example 506, 6-(5-(difluoro-methyl)-1,3,4-oxadiazol-2-yl)-2-((3R,4R)-1-(2,2-difluoro-propanoyl)-3-(4-fluorophenyl)piperidin-4-yl) isoindolin-1-one], the inhibition at 10 µM stood at 99%.
With `O=C1c2cc(-c3nnc(C(F)F)o3)ccc2CN1[C@@H]1CCN(C(=O)C2(F)CC2)C[C@H]1c1ccc(F)cc1` [Example 507, 6-(5-(difluoro-methyl)-1,3,4-oxadiazol-2-yl)-2-((3R,4R)-1-((1-fluorocyclo-propyl)carbonyl)-3-(4-fluoro-phenyl)piperidin-4-yl)isoindolin-1-one], the inhibition at 10 µM worked out at 100%.
As to `CC(=O)N1CC[C@@H](N2Cc3ccc(-c4nnc(C(F)F)o4)cc3C2=O)[C@H](c2ccc(F)cc2)C1` [Example 509, 2-((3R,4R)-1-acetyl-3-(4-fluorophenyl)piperidin-4-yl)-6-(5-(difluoro-methyl)-1,3,4-oxadiazol-2-yl) isoindolin-1-one], the inhibition at 10 µM came to 99%.
On the same count and under the same terms, the result for `O=C(N[C@H]1[C@H](N2Cc3ccc(-c4nnc(C(F)F)o4)cc3C2=O)CCCC1(F)F)OCc1ccccc1` [Example 510, benzyl ((1S,6R)-6-(6-(5-(difluoromethyl)-1,3,4-oxadiazol-2-yl)-1-oxo-1,3-dihydro-2H-isoindol-2-yl)-2,2-difluorocyclohexyl)carbamate] reads 100%; that for `N[C@H]1[C@H](N2Cc3ccc(-c4nnc(C(F)F)o4)cc3C2=O)CCCC1(F)F` [Example 511, 2-((1R,2S)-2-amino-3,3-difluorocyclohexyl)-6-(5-(difluoromethyl)-1,3,4-oxadiazol-2-yl)isoindolin-1-one], 95%.
In the case of `O=C1c2cc(-c3nnc(C(F)F)o3)ccc2CN1[C@@H]1CCCC(F)(F)[C@H]1NC(=O)C(F)(F)C(F)(F)F` [Example 513, N-((1S,6R)-6-(6-(5-(difluoromethyl)-1,3,4-oxadiazol-2-yl)-1-oxo-1,3-dihydro-2H-isoindol-2-yl)-2,2-difluorocyclohexyl)-2,2,3,3,3-pentafluoropropanamide], the inhibition at 10 µM was 99%.
Take `O=C1c2cc(-c3nnc(C(F)F)o3)ccc2CN1[C@@H]1CCC(F)(F)C[C@@H]1NC(=O)C(F)(F)C(F)(F)F` [Example 515, N-((1S,2R)-2-(6-(5-(difluoro-methyl)-1,3,4-oxadiazol-2-yl)-1-oxo-1,3-dihydro-2H-isoindol-2-yl)-5,5-difluoro-cyclohexyl)-2,2,3,3,3-pentafluoro-propanamide]: the inhibition at 10 µM amounted to 99%.
Still for that read-out and setting: in the case of `CC(F)(F)C(=O)N[C@H]1CC(F)(F)CC[C@H]1N1Cc2ccc(-c3nnc(C(F)F)o3)cc2C1=O` [Example 516, N-((1S,2R)-2-(6-(5-(difluoromethyl)-1,3,4-oxadiazol-2-yl)-1-oxo-1,3-dihydro-2H-isoindol-2-yl)-5,5-difluorocyclohexyl)-2,2-difluoropropanamide] it was 100%.
As to `Cn1cc(C2=CCN(C(=O)OC(C)(C)C)CC2)c(N2Cc3ccc(-c4nnc(C(F)F)o4)cc3C2=O)n1` [Example 518, tert-butyl 4-(3-(6-(5-(difluoro-methyl)-1,3,4-oxadiazol-2-yl)-1-oxo-1,3-dihydro-2H-isoindol-2-yl)-1-methyl-1H-pyrazol-4-yl)-3,6-dihydro-pyridine-1(2H)-carboxylate], the inhibition at 10 µM stood at 99%.
For `Cn1cc(C2=CCC(NC(=O)OC(C)(C)C)CC2)c(N2Cc3ccc(-c4nnc(C(F)F)o4)cc3C2=O)n1` (stereo not drawn) [Example 519, tert-butyl (4-(3-(6-(5-(difluoromethyl)-1,3,4-oxadiazol-2-yl)-1-oxo-1,3-dihydro-2H-isoindol-2-yl)-1-methyl-1H-pyrazol-4-yl)cyclohex-3-en-1-yl)carbamate], the inhibition at 10 µM was determined as 99%.
Consider `CC(C)(C)OC(=O)NC1CC=C(c2cc(F)ccc2N2Cc3ccc(-c4nnc(C(F)F)o4)cc3C2=O)CC1` (stereo not drawn) [Example 520, tert-butyl (4-(2-(6-(5-(difluoromethyl)-1,3,4-oxadiazol-2-yl)-1-oxo-1,3-dihydro-2H-isoindol-2-yl)-5-fluorophenyl)cyclohex-3-en-1-yl)carbamate], for which the inhibition at 10 µM came to 99%.
As to `O=C1c2cc(-c3nnc(C(F)F)o3)ccc2CN1[C@@H]1CCCC[C@H]1Nc1ccccn1` [Example 521, 6-(5-(difluoromethyl)-1,3,4-oxadiazol-2-yl)-2-((1R,2R)-2-(pyridin-2-ylamino)cyclohexyl)isoindolin-1-one], the inhibition at 10 µM was found to be 99%.
For `Cn1cc(C2CCN(C(=O)OC(C)(C)C)CC2)c(N2Cc3ccc(-c4nnc(C(F)F)o4)cc3C2=O)n1` [Example 522, tert-butyl 4-(3-(6-(5-(difluoromethyl)-1,3,4-oxadiazol-2-yl)-1-oxo-1,3-dihydro-2H-isoindol-2-yl)-1-methyl-1H-pyrazol-4-yl)piperidine-1-carboxylate], the inhibition at 10 µM was 99%.
For the compound `Cn1cc(C2CCC(NC(=O)OC(C)(C)C)CC2)c(N2Cc3ccc(-c4nnc(C(F)F)o4)cc3C2=O)n1` (stereo not drawn) [Example 523, tert-butyl (4-(3-(6-(5-(difluoromethyl)-1,3,4-oxadiazol-2-yl)-1-oxo-1,3-dihydro-2H-isoindol-2-yl)-1-methyl-1H-pyrazol-4-yl)cyclohexyl)carbamate], the inhibition at 10 µM was 99%.
Regarding `CC(C)(C)OC(=O)N1CCC(c2cc(F)ccc2N2Cc3ccc(-c4nnc(C(F)F)o4)cc3C2=O)CC1` [Example 524, tert-butyl 4-(2-(6-(5-(difluoromethyl)-1,3,4-oxadiazol-2-yl)-1-oxo-1,3-dihydro-2H-isoindol-2-yl)-5-flluorophenyl)piperidine-1-carboxylate], the inhibition at 10 µM was 99%.
Turning to `CC(C)(C)OC(=O)NC1CCC(c2cc(F)ccc2N2Cc3ccc(-c4nnc(C(F)F)o4)cc3C2=O)CC1` (stereo not drawn) [Example 525, tert-butyl (4-(2-(6-(5-(difluoromethyl)-1,3,4-oxadiazol-2-yl)-1-oxo-1,3-dihydro-2H-isoindol-2-yl)-5-fluorophenyl)cyclohexyl)carbamate], the inhibition at 10 µM was determined as 100%.
Turning to `O=C1c2cc(-c3nnc(C(F)F)o3)ccc2CN1N1CCC(F)(F)CC1c1ccccc1` (stereo not drawn) [Example 530, 6-(5-(difluoromethyl)-1,3,4-oxadiazol-2-yl)-2-(4,4-difluoro-2-phenylpiperidin-1-yl)isoindolin-1-one], the inhibition at 10 µM is 100%.

Staying with this test, now noted: read-out: HDAC6 inhibitory rate (%) (10 μM).
For `O=C1c2cc(-c3nnc(C(F)F)o3)ccc2CN1[C@@H]1CCCC[C@H]1N1CC(F)(F)C(F)(F)C(F)(F)C1` [Example 531, 6-(5-(difluoromethyl)-1,3,4-oxadiazol-2-yl)-2-((1R,2R)-2-(3,3,4,4,5,5-hexafluoropiperidin-1-yl)cyclohexyl)isoindolin-1-one], the inhibition at 10 µM was determined as 100%.
